# Laboratory results published in patent publication US6617314B2, “Injectable formulations of avermectins and milbemycins” (Bayer Aktiengesellschaft, priority 1996, dated 2003).
# Experiment: solubility of ivermectin in solvents
# Format: physicochemical
# Text: The solubility of ivermectin in benzyl alcohol is >40% by weight and in castor oil ˜4% by weight.
substance,measurement,setting,value
"22,23-dihydroavermectin B1 [ivermectin]",solubility in benzyl alcohol,solvent benzyl alcohol,> 40 % by weight
same,solubility in castor oil,solvent castor oil,~4 % by weight
